Source: paper PMC4013053, “Identification of Selective Small Molecule Inhibitors of the Nucleotide-Binding Oligomerization Domain 1 (NOD1) Signaling Pathway” (PLoS ONE, 2014)
≈ marks a conversion by molar mass, not a printed value. Where two headings read alike, the source gives them in different places. One block for each molecule: values may come before it.

Legend:
[1] = molecular target: T1, NOD1 (Homo sapiens, UniProt Q9Y239); test: iE-DAP-stimulated IL-8 release in 293/hNOD1 cells; format: cell-based
T1 sequence (Q9Y239 1-953): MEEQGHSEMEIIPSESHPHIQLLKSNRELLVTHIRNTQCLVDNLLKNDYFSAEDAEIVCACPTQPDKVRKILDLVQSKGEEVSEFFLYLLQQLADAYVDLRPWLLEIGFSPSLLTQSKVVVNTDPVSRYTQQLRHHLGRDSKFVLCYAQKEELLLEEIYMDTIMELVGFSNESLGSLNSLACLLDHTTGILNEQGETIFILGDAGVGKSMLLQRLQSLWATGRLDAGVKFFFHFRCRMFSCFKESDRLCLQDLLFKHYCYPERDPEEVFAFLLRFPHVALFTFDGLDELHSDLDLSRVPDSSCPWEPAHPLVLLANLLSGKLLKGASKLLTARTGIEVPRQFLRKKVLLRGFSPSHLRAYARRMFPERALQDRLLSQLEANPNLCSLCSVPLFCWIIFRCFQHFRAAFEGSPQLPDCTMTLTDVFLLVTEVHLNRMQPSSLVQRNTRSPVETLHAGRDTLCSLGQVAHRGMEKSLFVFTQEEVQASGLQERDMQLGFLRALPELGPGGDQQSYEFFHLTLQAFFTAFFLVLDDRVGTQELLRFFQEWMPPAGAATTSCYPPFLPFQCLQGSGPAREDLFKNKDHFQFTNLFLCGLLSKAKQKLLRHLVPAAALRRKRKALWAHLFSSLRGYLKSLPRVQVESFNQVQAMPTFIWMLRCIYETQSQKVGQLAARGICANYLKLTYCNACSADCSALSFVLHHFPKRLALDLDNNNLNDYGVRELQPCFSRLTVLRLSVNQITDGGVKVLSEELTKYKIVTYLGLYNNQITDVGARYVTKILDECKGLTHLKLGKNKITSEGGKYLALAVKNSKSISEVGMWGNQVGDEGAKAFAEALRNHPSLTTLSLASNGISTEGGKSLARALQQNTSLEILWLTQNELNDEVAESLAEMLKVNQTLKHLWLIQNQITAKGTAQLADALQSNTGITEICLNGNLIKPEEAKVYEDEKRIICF
Description: Inhibitors of iE-DAP-stimulated IL-8 release were screened in a 1536-well assay in which 293/hNOD1 cells (5000 cells/well) in DMEM high glucose medium supplemented with 0.1% FBS and 10 µg/mL Blasticidin S were stimulated with 60 ng/mL (200 nM) iE-DAP (EC80) in the presence of 10 µM compounds. After 24 hours the amount of IL-8 secreted into the medium was determined by homogeneous time resolved fluorescence (HTRF) assay by the direct addition of a 1∶1 mix of europium cryptate and XL665-conjugated anti-IL-8 antibodies according to the manufacturer’s instructions (Cisbio). Fluorescence was measured after 2 hours in a ViewLux imager using UMB-AMC excitation and 618–671 nm emission filters (Perkin Elmer). […] Inhibition of TNFR1-induced IL-8 release was performed with 293/hNOD1 cells stimulated with 20 ng/mL (∼EC95) rhTNFα.
A high-throughput screen of about 2.2 million compounds was conducted for inhibitors of the NOD1 signaling pathway using suppression of iE-DAP stimulated IL-8 secretion in HEK293 cells stably expressing human NOD1 (293/hNOD1 cells). […] These assays were chosen to assess the selectivity of hits because the signaling pathways activated by these receptors converge at the level of the TAB/TAK1/IKK complex.

[2] = Immobilized artificial membrane (IAM) binding; format: physicochemical
From the text: (§1) Physicochemical analyses of compounds were completed at GSK.

[3] = Chromatographic hydrophobicity index (Chrom log D); format: physicochemical; details: pH 7.4
From the text: as §1

[4] = CLND solubility; format: physicochemical; details: phosphate buffered saline with 5% DMSO, pH 7.4, aqueous buffer, kinetic from dmso stock; 5% DMSO pH7.4 phosphate buffered saline
From the text: as §1

[5] = test system: α1-acid glycoprotein; test: α1-acid glycoprotein (AGP) binding; format: in vitro ADME
From the text: as §1

[6] = molecular target: human serum albumin (Homo sapiens, UniProt P02768); test: Human serum albumin (HSA) binding; format: in vitro ADME
Chain of human serum albumin (P02768 25-609): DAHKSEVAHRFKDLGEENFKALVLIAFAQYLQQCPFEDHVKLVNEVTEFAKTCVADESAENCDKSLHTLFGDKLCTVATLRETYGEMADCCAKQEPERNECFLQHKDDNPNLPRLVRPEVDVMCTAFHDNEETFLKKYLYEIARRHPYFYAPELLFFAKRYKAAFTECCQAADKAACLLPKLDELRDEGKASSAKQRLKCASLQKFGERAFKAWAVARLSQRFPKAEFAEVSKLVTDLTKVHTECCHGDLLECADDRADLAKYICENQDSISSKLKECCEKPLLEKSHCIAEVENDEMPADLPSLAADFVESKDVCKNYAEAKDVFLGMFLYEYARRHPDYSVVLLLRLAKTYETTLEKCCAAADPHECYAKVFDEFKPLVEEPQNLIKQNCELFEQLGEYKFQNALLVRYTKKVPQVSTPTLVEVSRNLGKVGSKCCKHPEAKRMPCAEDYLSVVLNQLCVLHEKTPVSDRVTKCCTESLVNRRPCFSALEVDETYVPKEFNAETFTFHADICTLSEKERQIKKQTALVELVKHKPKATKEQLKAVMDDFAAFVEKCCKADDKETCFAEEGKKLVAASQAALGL
From the text: as §1

[7] = Permeability across an artificial membrane; format: in vitro ADME; details: PAMPA
From the text: as §1

[8] = test system: NOD1 induced NF-κB and MAPK pathways; test: Western blotting of IκBα and phospho-MAPKs in Tri-DAP stimulated 293/hNOD1 cells; format: cell-based, human; details: 50 µg/mL Tri-DAP 1 hour, immunoblotting
Description: Confluent cultures of 293/hNOD1 and -hNOD2 cells seeded in 24-well plates were serum-starved over-night, pre-incubated for 1 hour with compound and then stimulated for 1 hour with either 50 µg/mL Tri-DAP or 25 µg/mL MDP, respectively. Whole cell lysates were prepared in 1X cell lysis buffer (Cell Signaling Technology) supplemented with additional protease, aminopeptidase and phosphatase inhibitors (protease inhibitor cocktail set III, EMD Biosciences; phosphatase inhibitor sets II and III, Sigma-Aldrich). The levels of phosphorylated and total p38, JNK, ERK1/2 and total IκBα were determined by immunoblotting of ∼20 µg protein per sample using the following primary antibodies: phospho-p38 MAPK (12F8, #4631), p38 MAPK (#9212), phospho-JNK (#9251), JNK (#9252) and IκBα (#9242) all purchased from Cell Signaling Technology, and phospho-ERK1/2 (sc-7383) and ERK1/2 (sc-94) antibodies from Santa Cruz Biotechnology.

[9] = test system: NOD1; details: HEK293T cells, read-out: IC50 NF-κB reporter, cited from earlier work
[10] = test system: NOD2; parameters: method as in PMID 22549783; details: read-out: NOD2 IC50 (nucleotide binding); cited from earlier work
[11] = test system: NOD1; parameters: method as in PMID 22062585; details: read-out: NOD1 IC50 (nucleotide binding); cited from earlier work
[12] = iE-DAP-stimulated IL-8 production in 293/hNOD1 cells, SAR figures, read-out: NOD1 XC50
[13] = HEK293 stably expressing human NOD1, IL-8 released into medium, read-out: IC50 293/hNOD1 iE-DAP

IC50 [1, 12]: 3700 ± 1400 nM | IAM binding [2]: 2.40 log K | chromatographic logD [3]: 5.17 | solubility [4]: 46 µM (≈ 19.8 µg/mL) | AGP binding [5]: 87.41% | HSA binding [6]: 98.01% | Papp [7]: 23 ×10⁻⁶ cm/s
Compound: O=C(Nc1ccc2c(c1)OCO2)c1cccc(NS(=O)(=O)c2ccc(Cl)cc2)c1 [Compound 21]

IC50 [1, 13]: 700 nM
Compound: Cc1nc2ccccc2c(=O)n1-c1ccc(F)c(NS(=O)(=O)c2ccc(Cl)s2)c1 [Compound 9]
effect on Tri-DAP induced p-JNK, p-p38 and IκBα responses [8]: reduced both phospho-JNK and the weaker phospho-p38 levels while levels of IκBα were increased

IC50 [1, 12]: 4700 ± 1400 nM
Compound: CCCCCCSc1nc2c(c(=O)[nH]c(=O)n2C)n1Cc1ccccc1 [Compound 3]

IC50 [1, 12]: 1400 ± 300 nM
Compound: CC(=O)Nc1ccc2nc(NC(=O)c3cccc(NS(=O)(=O)c4ccc(C)cc4)c3)sc2c1 [Compound 18]

IC50 [1, 12]: 1100 ± 700 nM
Compound: Cc1ccc(S(=O)(=O)Nc2cc(-n3c(C)nc4ccccc4c3=O)ccc2F)cc1C [Compound 11]

IC50 [1, 12]: 2500 ± 1200 nM
Compound: Cc1nc2cc(Cl)ccc2c(=O)n1-c1ccc(Cl)c(NS(=O)(=O)c2ccccc2F)c1 [Compound 27, N-(2-chloro-5-(7-chloro-2-methyl-4-oxoquinazolin-3(4H)-yl)phenyl)-2-fluorobenzenesulfonamide]

IC50 [1, 12]: 2200 ± 3300 nM
Compound: Cc1nc2ccccc2c(=O)n1-c1ccc(F)c(NS(=O)(=O)c2ccc(F)cc2F)c1 [Compound 10]

Compound: Cc1ccc(S(=O)(=O)n2c(N)nc3ccccc32)cc1 [ML130]
IC50 [9]: 560 nM

IC50 [1, 12]: 25000 ± 17500 nM
Compound: Cc1cc(=O)n(-c2ccc(Cl)c(NS(=O)(=O)c3ccccc3F)c2)c(C)n1 [Compound 29, N-(2-chloro-5-(2,4-dimethyl-6-oxopyrimidin-1(6H)-yl)phenyl)-2-fluorobenzenesulfonamide]

IC50 [1, 12]: 2000 ± 500 nM
Compound: N#Cc1ccc(-c2csc(NC(=O)c3cccc(NS(=O)(=O)c4ccc(Cl)cc4)c3)n2)cc1 [Compound 19]

IC50 [1, 12]: 2300 ± 1700 nM | IAM binding [2]: 1.36 log K | chromatographic logD [3]: 2.87 | solubility [4]: 423 µM (≈ 176 µg/mL) | AGP binding [5]: 81.23% | HSA binding [6]: 96.08% | Papp [7]: 26 ×10⁻⁶ cm/s
Compound: Cc1nc2ccccc2c(=O)n1-c1ccc(F)c(NS(=O)(=O)c2cccs2)c1 [Compound 13]

IC50 [1, 12]: 500 ± 100 nM
Compound: COc1ccc(Cl)cc1S(=O)(=O)Nc1cc(-n2c(C)nc3ccccc3c2=O)ccc1Cl [Compound 25]

Compound: Nc1ncnc2c1ncn2[C@@H]1O[C@H](COP(=O)(O)OP(=O)(O)OP(=O)(O)O)[C@@H](O)[C@H]1O [ATP]
IC50 [10]: ~60 nM | IC50 [11]: ~15 nM

IC50 [1, 12]: 9600 ± 2800 nM
Compound: C/C=C/Cn1c(SCCc2ccccc2)nc2c1c(=O)[nH]c(=O)n2C [Compound 6]

IC50 [1, 12]: 37300 ± 18100 nM
Compound: Cn1c(=O)[nH]c(=O)c2c1nc(SCc1ccccc1)n2Cc1ccccc1 [Compound 7]

IC50 [1, 12]: 760 ± 100 nM
Compound: Cc1ccc(S(=O)(=O)Nc2cccc(C(=O)Nc3ccc4nc(C)sc4c3)c2)c(F)c1 [Compound 17]

IC50 [1, 12]: 8700 ± 1500 nM
Compound: Cn1c(=O)[nH]c(=O)c2c1nc(SCCCc1ccccc1)n2Cc1ccccc1 [Compound 4]

IC50 [1, 12]: 8900 ± 1600 nM
Compound: Cc1cccc(CSc2nc3c(c(=O)[nH]c(=O)n3C)n2Cc2ccccc2)c1 [Compound 5]

IC50 [1, 13]: 200 nM | IC50 [1, 12]: 190 ± 30 nM
Compound: Cc1ccc(S(=O)(=O)Nc2cccc(C(=O)Nc3nc4ccc([N+](=O)[O-])cc4s3)c2)cc1 [Compound 15]

IC50 [1, 12]: 200 ± 200 nM
Compound: Cc1ccc(S(=O)(=O)Nc2cc(-n3c(C)nc4ccccc4c3=O)ccc2Cl)cc1 [Compound 24]

IC50 [1, 12]: 1200 ± 100 nM
Compound: Cc1nc2ccccc2c(=O)n1-c1ccc(F)c(NS(=O)(=O)c2cc(Cl)ccc2Cl)c1 [Compound 12]

IC50 [1, 12]: 2300 ± 800 nM
Compound: COc1ccc(S(=O)(=O)Nc2cccc(C(=O)Nc3ccc4nc(C)sc4c3)c2)cc1 [Compound 20]

IC50 [1, 12]: 3500 ± 500 nM
Compound: Cc1nc(C)n(-c2ccc(Cl)c(NS(=O)(=O)c3ccccc3F)c2)c(=O)c1C [Compound 28, N-(2-chloro-5-(2,4,5-trimethyl-6-oxopyrimidin-1(6H)-yl)phenyl)-2-fluorobenzenesulfonamide]

Compound: C/C=C/Cn1c(SCCCc2ccccc2)nc2c1c(=O)[nH]c(=O)n2C [ML146]
IC50 ([9]; ref Magnuson et al, 2010): 1500 nM

IC50 [1, 13]: 700 nM | IAM binding [2]: 1.42 log K | chromatographic logD [3]: 3.24 | solubility [4]: 391 µM (≈ 167 µg/mL) | AGP binding [5]: 80.38% | HSA binding [6]: 96.05% | Papp [7]: 35 ×10⁻⁶ cm/s
Compound: Cc1nc2ccccc2c(=O)n1-c1ccc(F)c(NS(=O)(=O)c2ccccc2F)c1 [Compound 8]

IC50 [1, 13]: 15100 nM
Compound: CCc1ccc(S(=O)(=O)Nc2cccc(-n3c(C)nc4ccccc4c3=O)c2)s1 [Compound 14]

IC50 [1, 12]: 400 ± 80 nM
Compound: Cn1c(=O)[nH]c(=O)c2c1nc(SCCc1ccccc1)n2Cc1ccccc1 [Compound 1]

IC50 [1, 12]: 100 ± 40 nM
Compound: Cc1nc2ccccc2c(=O)n1-c1ccc(Cl)c(NS(=O)(=O)c2ccc3c(c2)OCCO3)c1 [Compound 23]

IC50 [1, 12]: 26 nM
Compound: Cc1nc2ccc(Cl)cc2c(=O)n1-c1ccc(Cl)c(NS(=O)(=O)c2ccccc2F)c1 [Compound 26, N-(2-chloro-5-(6-chloro-2-methyl-4-oxoquinazolin-3(4H)-yl)phenyl)-2-fluorobenzenesulfonamide]

IC50 [1, 12]: 2500 ± 1300 nM
Compound: Cn1c(=O)[nH]c(=O)c2c1nc(CCCSc1ccccc1)n2Cc1ccccc1 [Compound 2]
